According to ChEMBL document CHEMBL1130623, “Novel cytokine release inhibitors. Part II: Steroids” (Bioorg Med Chem Lett, 1998):

Experiments:
Homo sapiens [1] = organism: Homo sapiens; experiment: Compound was evaluated for percentage inhibition of Interleukin (IL1-beta) release in human monocytes at a concentration of 1000 nM.; type: functional
Homo sapiens [2] = organism: Homo sapiens; experiment: (§1) Compound was evaluated for inhibition of Interleukin (IL1-beta) release in human monocytes.; type: functional
Homo sapiens [3] = organism: Homo sapiens; experiment: Compound was evaluated for percentage inhibition of Interleukin (IL1-beta) release in human monocytes at a concentration of 3000 nM.; type: functional
[4] = as §1; type: functional, cell-based

| Structure (SMILES) | inhibition at 1 µM (Homo sapiens [1]) [%] | IC50 (Homo sapiens [2]) [nM] | also measured |
| --- | --- | --- | --- |
| C[C@]12CC[C@H]3C(=CCc4cc(O)ccc43)[C@@H]1CCC2=O [EQUILIN] | -11 |  |  |
| C[C@]12CCc3c(ccc4cc(O)ccc34)[C@@H]1CCC2=O [EQUILENIN] | 27 |  |  |
| C[C@]12CC[C@@H]3c4ccc(O)cc4C=C[C@H]3[C@@H]1CCC2=O | 1 |  |  |
| CC(=O)Oc1cc2c(c(C)c1OC(C)=O)[C@H]1CC[C@]3(C)[C@@H](OC(C)=O)CC[C@H]3[C@@H]1C=C2 |  | 150 |  |
| C[C@]12CC[C@H]3[C@@H](CCC4=CC(=O)C(O)=C[C@@]43C)[C@@H]1CC[C@@H]2O |  |  | inhibition at 3 µM (Homo sapiens [3]): 36% |
| COC(=O)[C@]1(C)CC[C@]2(C)CC[C@]3(C)C4=CCc5c(cc(OC(C)=O)c(OC(C)=O)c5C)[C@]4(C)CC[C@@]3(C)[C@@H]2C1 [PRISTIMEROL DIACETATE] |  | 80 |  |
| CC1=C(O)C(=O)C=C2C1=CC=C1[C@@]2(C)CC[C@@]2(C)[C@@H]3C[C@](C)(C(=O)O)CC[C@]3(C)CC[C@]12C [CELASTROL] |  |  | IC50 [4]: 40 nM |
| CC(=O)OC1=C[C@@]2(C)C(=CC1=O)C=C[C@H]1[C@@H]3CC[C@H](OC(C)=O)[C@@]3(C)CC[C@@H]12 |  | 3000 |  |
| C[C@]12CC[C@H]3[C@@H](C=CC4=CC(=O)C(O)=C[C@@]43C)[C@@H]1CC[C@@H]2O |  | 3000 |  |
